How the values were obtained:
Test on Heineken beer = conditions: 0.5 ppm, 4% alcohol
Procedure: In Heineken beer (Market Product) containing 4% alcohol C18:2-gaba was added at 0.5 ppm
Samples were evaluated by expert tasters. Tasters were asked to describe the samples focusing on authentic taste, alcohol impact, malt taste, hop taste, mouthfeel, fullness, salivation, sweetness, bitterness, richness, long lastingness and fattiness.
(§1) Samples were evaluated by expert tasters. Tasters were asked to describe the samples focusing on authentic taste, mouthfeel, fullness, salty-ness, salivation, umami, sweetness, juiciness, richness, long lastingness and fattiness.
Base: Heineken beer (containing 4% alcohol)

[1] = Test in pear flavoured drink; conditions: 1 ppm; water, 7% sugar (8% elsewhere in the source), 0.1% citric acid, pear flavour 0.025%
Procedure: (§2) Samples were prepared and evaluated by expert tasters. Tasters were asked to describe the samples focusing on authentic taste, mouthfeel, fullness, salty-ness, salivation, umami, sweetness, juiciness, richness, long lastingness and fattiness.
Test in Pear Flavoured Drink:
Base: water, 7% sugar, 0.1% citric acid, proprietary pear flavour at 0.025%
as §1
Comparison in a Pear Drink
Base is water, 8% sugar, 0.1% citric acid, proprietary pear flavour at 0.025%

[2] = Tasting in UHT sweetened banana flavoured milk; conditions: banana flavour 0.04%
Procedure: UHT Sweetened Banana Flavoured Milk, With Different Fat Levels
In a UHT milk with 0% and 3% fat sweetened with 4% sucrose by weight, flavoured with proprietary banana flavour dosed at 0.04%. C18:2 gaba was added at 0.25 ppm, 0.5 ppm and 1 ppm.
(§3) Samples were evaluated by expert tasters. Tasters were asked to describe the samples focusing on authentic taste, mouthfeel, fullness, salivation, sweetness, juiciness, richness, long lastingness and fattiness.

Tasting in soy sauce = assay: Tasting in soy sauce
Procedure: (§4) The following formulations were prepared and tasted by trained panelists.
Salt level pure product between 5-40%
Salt level in application 0.3-1.0%
as §2
Test on Kikkoman Soy Sauce Low Salt
Base is Kikkoman soy sauce
Samples were prepared and evaluated by expert tasters. Tasters were asked to describe the samples focusing on authentic taste, mouthfeel, fullness, salivation, salty-ness, umami, sweetness, juiciness, richness, long lastingness and fattiness.

[3] = Tasting in mango still beverage, 4% clear mango juice; conditions: 1 ppm; 4% clear mango juice (30% reduced juice)
Procedure: Mango Flavoured Still Beverage Containing Different Levels of Juice,
In a Mango flavoured still beverage, sweetened with 8% sucrose and containing 0.1% citric acid and 1%, 4% and 6% clear mango juice flavoured with a proprietary Mango flavour @ 0.05%, C18:2-gaba and C18:2-Pro were added, as such (separate) and in combination.
All samples were evaluated by expert tasters. Tasters were asked to describe the samples focusing on authentic taste, juicy mouthfeel, enhancement, richness, juiciness, long lastingness, salivation, sweetness.
In a Mango flavoured still beverage, sweetened with 8% sucrose & containing 0.1% citric acid and 4% clear mango juice flavoured with Mango flavour @ 0.05%, C18:2-gaba and C18:2-Pro were added, as such (separate) and in combination.
Base is water, 8% sucrose, 0.1% citric acid, 4% clear mango juice (30% reduced juice), flavoured with Mango flavor, dosed at 0.05%

[4] = Test in chocolate flavoured drink; conditions: 2 ppm; water, 4% sucrose, chocolate flavour 0.03%
Procedure: as §2
Test in Chocolate Flavoured Drink:
Base: Water, 4% sucrose, proprietary chocolate flavor at 0.03%
as §1
Test in Chocolate Flavoured Drink Flavoured
Base: Water, 4% sucrose, proprietary chocolate flavour @ 0.03%

[5] = Tasting on fried potato snack product; conditions: 35% fat, cheese seasoning
Procedure: as §4
A snack product consisting of a fried potato base, containing 35% fat and flavored with cheese seasoning containing salt, MSG, dairy, organic acids, sugars, and a flavour formulation. The following compounds were added to the snack product at the indicated levels and the tasting results are reported: […]

[6] = Tasting in vanilla flavoured milk 3.0% fat; conditions: 2 ppm, 4% sugar, vanillin 10 ppm, vanilla extract 0.03%
Procedure: Vanilla Flavoured Milk 3.0% Fat
In a 3% fat milk drink, sweetened with 4% sucrose by weight, flavoured with Vaniline @ 10 ppm and a Vanilla extract @ 0.03% C18:2-gaba, C18:1-ACOA and C18:1-glu were added at 0.5 or 2 ppm.
as §3
Base: Milk 3% fat, 4% sugar, vanillin 10 ppm, vanilla extract 0.03%

[7] = Tasting on air expanded base; conditions: 3% fat, cheese seasoning
Procedure: as §4
An air expanded base (Rice, wheat, Tapioca, potato, salt, sugar, modified starch), containing 3% fat and flavored with cheese seasoning containing salt, MSG, dairy, organic acids, sugars and flavor. The following compounds were added to the base at the indicated levels and the tasting results are reported: […]

With `CCCCC/C=C\C/C=C\CCCCCCCC(=O)NCCCC(=O)O` [C18:2-gaba] as the compound, how does the tasting result (Test on Heineken beer) read?
Its tasting result is “more hoppy, more bitter, more malt and stronger alcohol impact”.

And the tasting result (Test on Heineken beer; listed as C18:2 gaba)?
The tasting result was “more happy, more bitter, more malt and stronger alcohol impact”.

And the tasting result [1]?
Its tasting result is “long lasting, juicy and fatty skin like very authentic, like eating the fruit instead of drinking a drink”.

And the tasting result ([2]; 0.25 ppm, UHT milk 0% fat)?
Its tasting result is “fuller banana, more authentic, more sweet”.

What about the tasting result ([2]; 0.25 ppm, UHT milk 3% fat) of the same compound?
The tasting result was “more authentic, less estery and more round”.

What about the tasting result ([2]; 0.5 ppm, UHT milk 0% fat) of the same compound?
The tasting result was “fuller banana, authentic, creamy and sweet, more mouthfeel”.

And the tasting result ([2]; 0.5 ppm, UHT milk 3% fat)?
The tasting result was “creamy banana”.

And the tasting result ([2]; 1 ppm, UHT milk 0% fat)?
The tasting result was “creamy, creamy banana, sweet aftertaste, more mouthfeel and very longlasting”.

And the tasting result ([2]; 1 ppm, UHT milk 3% fat)?
The tasting result was “creamy long lasting and more authentic and more impact”.

And the tasting result (Tasting in soy sauce; 0.5 ppm in 1% diluted salt reduced kikoman soy sauce (9% salt))?
Its tasting result is “stronger, more umami, long lasting, richer”.

What about the tasting result (Tasting in soy sauce; 0.5 ppm in Kikkoman soy sauce low salt) of the same compound?
Its tasting result is “much more salty, sweet and long lasting”.

What about the tasting result (Tasting in soy sauce; 0.5 ppm in pure salt reduced kikoman soy sauce (9% salt)) of the same compound?
The tasting result was “strong in body and mouthfeel, and more salty”.

What about the tasting result [3] of the same compound?
Its tasting result is “fatty skin-like, very juicy, authentic mango, long lasting mango taste, more mouthfeel than the full juice product”.

And the tasting result [4]?
Its tasting result is “full, sweeter, more vanillic, milk chocolate is enhanced, very long lasting”.

What about the tasting result ([5]; 0.5 ppm on fried potato snack) of the same compound?
Its tasting result is “increased dairy, cheesy”.

And the tasting result ([5]; 1 ppm on fried potato snack)?
Its tasting result is “Fatty full, cheesy, cheese crust, long lasting”.

And the tasting result [6]?
The tasting result was “beany, fatty, authentic, sweet”.

What about the tasting result ([7]; 0.5 ppm on air expanded base) of the same compound?
Its tasting result is “Increased dairy, cheese”.

And the tasting result ([7]; 1 ppm on air expanded base)?
The tasting result was “Fatty full, cheesy, cheese crust, long lasting, cover base”.
